Where two headings read alike, the source gives them in different places.
How the values were obtained:
[1] = test system: co-cultured human keratinocytes and melanocytes; assay: UV induced pigmentation in co-culture of melanocytes and keratinocytes; assay type: cell-based; details: co-culture under UV induction
Description: On UV induction, keratinocytes signal to melanocytes to increase melanogenesis. This can be modeled through co-culture of human melanocytes and keratinocytes under UV induction.

[2] = test system: Human melanocytes; assay: MTT cell viability assay, melanocytes; details: increasing concentrations
Description: (§1) Human keratinocytes and melanocytes were cultured in the presence of increasing concentrations of a polycationic aliphatic amine transport inhibitor, trimer44NMe, or DFMO, and the cell viability was determined by an MTT assay.

[3] = test system: Human keratinocytes; assay: MTT cell viability assay, keratinocytes; details: increasing concentrations (trimer44NMe up to 5 μM)
Description: as §1

[4] = test system: NHEM-aLP cells; assay: Putrescine/spermidine treatment of melanocytes and melanin quantification; assay type: cell-based, human
Description: 2×10^5 cells were dissolved in 1 M sodium hydroxide solution and incubated at 80° C. for 2 hours. The absorbance of the cell lysates was measured at 405 nm in a microplate well reader.
2×10^5 cells were dissolved in 1M sodium hydroxide solution and incubated at 80° C. for 2 hours. The absorbance of the cell lysates was measured at 405 nm in a microplate well reader.

[5] = test system: reconstructed epidermis (keratinocytes, melanocytes and fibroblasts); details: 2 mM Putrescine for 14 days, preliminary experiment
Description: The reconstructed epidermis (Denova Sciences) has normal human keratinocytes three dimensionally cultured at an air-liquid interface in a chemically defined medium, in the presence of melanocytes and fibroblasts. They were treated with 2 mM Putrescine for 14 days.

[6] = test system: human abdominal skin biopsies
Description: The skin was them imaged, followed by sectioning and staining with Fontana Mason stain which stains for melanin.

[7] = test system: primary human melanocytes; details: 3 and 6 days after incubation with putrescine
Description: FIG. 8 is a dot plot showing the viability of cells untreated, treated for 3 days, or treated for 6 days with putrescine.

[8] = test system: melanogenesis-related genes (TYR, TYRP1, DCT and PMEL) in NHEM-aLP cells; details: 2 mM putrescine for 6 days, relative to RPLP0
Description: Human epidermal melanocytes from adult donor (Hema-LP) were purchased from Life Technologies. The cells were grown in 254 media with HMGS-2 and calcium chloride supplements in a humidified incubator containing 5% CO2 according to the manufacturer's instruction. For putrescine treatments, the cells were plated at an approximate density of 20,000/cm^2 the day before. Fresh media was added along with the respective drugs reconstituted in water (putrescine was purchased from Sigma Aldrich) to the cell cultures on day 0 and day 3 of experiment.
Total RNA was extracted from the cells using RNAeasy (Qiagen) according to manufacturer's instructions. 500 ng of total RNA was converted to complimentary DNA using RevertAid First Strand cDNA synthesis kit (Thermo Scientifc). It was diluted 1:25, and 4 ul of the diluted mixture was used as a template with specific primers using Luminaris Colour HiGreen Hi ROX master mix (Thermo Fisher Scientific) for qRT-PCR on an ABI PRISM 7900 sequence detection system. […] Expression levels detected by qPCR were normalized with ribosomal protein LP0 or L13A.

[9] = test system: melanogenesis related proteins (TYR, TYRP1 and DCT) in NHEM-aLP cells; details: putrescine treated vs control, western blotting
Description: Human epidermal melanocytes from adult donor (Hema-LP) were purchased from Life Technologies. The cells were grown in 254 media with HMGS-2 and calcium chloride supplements in a humidified incubator containing 5% CO2 according to the manufacturer's instruction. For putrescine treatments, the cells were plated at an approximate density of 20,000/cm^2 the day before. Fresh media was added along with the respective drugs reconstituted in water (putrescine was purchased from Sigma Aldrich) to the cell cultures on day 0 and day 3 of experiment. The cells were lysed in RIPA buffer, and concentration of the cell lysate was determined by Pierce BCA Protein Assay Kit (Thermo Scientific). […] The membrane was blocked with 5% skim milk in TBST (0.1% Tween-20 (Sigma-Aldrich) in 1×TBS (0.1 M NaCl, 0.1 M Tris pH 7.4 in ddH2O; purchased from Biopolis Shared Facility) and incubated overnight at 4° C. with respective primary antibodies against TYR (sc-7833), TYRP1 (sc-10443), DCT (sc-10451) from Santa Cruz Biotechnology Inc and RPLP0 (AB126480) from Abcam at a dilution of 1:1000 in blocking buffer. The samples were then incubated with horseradish peroxidase-labeled anti-rabbit, or anti-goat IgG (Santa Cruz Biotechnology, Inc) at a dilution 1:5000 for 1 hour at 4° C. and immunoreactive bands were detected with enhanced chemiluminescent substrate (Thermo Fisher Scientific).

[10] = test system: primary human melanocytes; details: long term culture with putrescine
[11] = test system: cultured human melanocytes; details: melanocytes cultured with putrescine
Description: To confirm that cultured human melanocytes do take up putrescine, the polycationic aliphatic amine content was measured in melanocytes cultured with and without putrescine.

[12] = test system: ATP13A3, SLC11A8 and Caveolin-1 in melanocytes; details: on addition of putrescine
[13] = test system: NHEM-aLP cells; assay: MTS proliferation and cytotoxicity colorimetric assay
[14] = test system: human primary melanocytes; assay: Melanin content of melanocytes, putrescine with and without transport inhibitor; assay type: cell-based; details: putrescine plus trimer44NMe vs putrescine alone
Description: To confirm that import of putrescine is required for the pigmentation phenotype observed in melanocytes, human primary melanocytes were cultured with putrescine with and without a polycationic aliphatic amine transport inhibitor (trimer44NMe).

[15] = test system: Human melanocytes
Description: as §1

NCCCC(N)(C(=O)O)C(F)F (racemic) [DFMO, (RS)-2,5-diamino-2-(difluoromethyl)pentanoic acid]
UV induced pigmentation (melanin-containing keratinocytes) [1]: inhibits UV induced pigmentation
sensitivity of melanocyte viability [2]: comparatively insensitive
sensitivity of keratinocyte viability [3]: sensitive

NCCCCN [putrescine, butane-1,4-diamine]
cell morphology / dendrites ([4]; 2 mM putrescine, day 6): larger and flatter and displayed an increased number of dendrites
visual darkening of the melanocytes ([4]; 2 mM putrescine, every 3 days for 6 days): drastic darkening effect
increase in melanin content vs control ([4]; 2 mM putrescine, every 3 days for 6 days, NHEM-aLP cells): 1.5-2 fold
pigmentation levels compared to control [5]: increase in pigmentation levels
darkening of the skin ([6]; incubated ten days): promoted darkening of the skin
melanin stain within melanocytes and neighboring keratinocytes ([6]; ten days, Fontana Mason stain): increase in melanin stain
cell viability [7]: no decrease in viability
mRNA expression levels of TYR, TYRP1, DCT and PMEL [8]: significant increase
protein levels of TYR, TYRP1 and DCT [9]: increased drastically
melanin content on long term culture [10]: sustained increase in melanin content
intracellular levels of putrescine vs non-treated cells [11]: dramatically higher
intracellular levels of spermine [11]: decrease in the levels of spermine
protein level of Caveolin-1 [12]: decreases
protein levels of polyamine transporters ATP13A3 and SLC11A8 [12]: increase
maximum dose up to which NHEM-aLP can survive ([13]; 3 days treatment, MTS): 2 mM
effect on proliferation ([13]; doses between 0.5 mM and 2 mM, 3 days): mild proliferative effect

NCCCCNCCCN [spermidine, N′-(3-aminopropyl)butane-1,4-diamine]
melanin content of the cells, dose dependence ([4]; 0.05 mM and 0.5 mM spermidine, every 3 days for 6 days): dose dependant increase
maximum fold change in melanin content ([4]; 0.5 mM spermidine, every 3 days for 6 days, NHEM-aLP cells): 1.5-2 fold
concentration for similar melanin increase relative to putrescine (2 mM) ([4]; spermidine 0.5 mM vs putrescine 2 mM): 4 times lower

CNCCCCNCCCCNCc1cc(CNCCCCNCCCCNC)cc(CNCCCCNCCCCNC)c1 [trimer44NMe]
effect on putrescine induced pigmentation (melanin content) [14]: blocked the ability of putrescine to promote pigmentation
sensitivity of melanocyte viability [15]: highly sensitive
